Consider 1 compound from PMC8949893, “Chemical Synthesis, Pharmacokinetic Properties and Biological Effects of JM-00266, a Putative Non-Brain Penetrant Cannabinoid Receptor 1 Inverse Agonist” (International Journal of Molecular Sciences, 2022).

The nature of series [1]: Tissue distribution 4 h after gavage. The format is in vivo. Conditions: mice, 4 h after gavage in oil, 10 mg·kg−1. The protocol:
At 1, 2, 4 and 8 h post-administration, animals were killed by cervical dislocation and blood was collected from the vena cava into tubes containing heparin and centrifuged immediately at 6500× g for 10 min at 4 °C. For determination of tissue distribution, brain, liver and adipose tissue were collected 4 h post-gavage. Plasma and tissue samples were directly extracted for further analysis by Liquid chromatography coupled to tandem mass spectrometry (LC-MS/MS).
(§1) Tissues were homogenized with a mini-bead beater (BioSpec Products, Bartlesville, OK) in 10 volumes of acetonitrile containing 15 ng of internal standard, JM-00252. Blood samples were centrifuged at 6500× g during 10 min 4 °C and 5 µL of plasma were diluted in 10 volumes of acetonitrile containing 15 ng of internal standard. Then, each homogenate of tissue or plasma was centrifuged for 10 min at 6500× g and the supernatant was recovered and carefully transferred to new glass tubes. Finally, the extract was injected into a 1200 LC system coupled to a 6460-QqQ MS/MS system equipped with a JetStream ESI source (Agilent technologies, Les Ulis, France). Separation was achieved on a Poroshell 120 EC-C8 2.1 mm × 100 mm, 2.7 µm column (Agilent technologies) at a flow rate of 0.4 mL.min^−1, 55 °C, with a linear gradient of (solvent A) water containing 1 mM ammonium formate and 0.2% formic acid and (solvent B) methanol containing 1 mM ammonium formate and 0.2% formic acid and as follows: 50% B for 1 min, up to 100% B in 4 min, and then maintained at 100% for 2 min. The acquisition was performed in positive Single Reaction Monitoring (SRM) mode (source temperature: 300 °C, nebulizer gas flow rate was 10 L·min^−1, 15 psi, sheath gas flow 7 L·min^−1, temperature 225 °C, capillary 4000 V, nozzle 1500 V). […] Results are expressed as ng·g^−1 for tissues and ng·mL^−1 for plasma.

Series [2] deals with C57BL/6 wild type mice. Briefly: Insulin tolerance test (ITT). The note with it: 10 mg·kg−1 i.p. 10 min before insulin 0.5 UI·kg−1. The format is in vivo. The protocol:
(§2) To test acute effects of JM-00266 on glucose metabolism and their specificity to CB1R, C57BL/6 wild type mice and CB1R^−/− mice fasted for 6 h were subjected to an oral glucose tolerance test (OGTT, 2 g·kg^−1 glucose) and to an insulin tolerance test (ITT) using 0.5 UI·kg^−1 insulin (Actrapid, Novo Nordisk, La Défense, France) 10 min after i.p. injection of JM-00266 (10 mg·kg^−1) or vehicle. For both tests, glycemia was monitored during 120 min post-injection with a My Life Pura TM glucose meter (Ypsomed, Paris, France) directly on a blood drop from the tail. Corresponding AUC0–2 h were calculated.

The subject of another series is mice. Nature of the series: Food intake in 24-h food-deprived mice. The format is in vivo. The note with it: ACEA 1 mg/kg i.p., Rimonabant 10 mg·kg−1, JM-00266 20 mg·kg−1. The protocol:
For food intake experiments, mice were food-deprived for 24 h before being submitted to an i.p. injection of ACEA (1 mg·kg^−1). […] Cumulative food intake was measured every hour over a period of 3 h from refeeding.

In series [3] the test system is visceral adipose tissue explants. Nature of the series: In vitro lipolysis: glycerol release by adipose tissue explants from treated mice. The note with it: explants from mice injected with JM-00266 10 mg·kg−1 4 h before sacrifice, 1 h culture. How it is done:
In vitro experiments. Overnight-fasted mice were injected i.p. with JM-00266 (mg·kg^−1) or vehicle. Four hours later, mice were anesthetized with pentobarbital (50 mg·kg^−1) and epididymal adipose tissue was collected, rinsed in a warm medium (DMEM-HAM/F12) supplemented with 1% BSA, and dissected into ~10 mg pieces. Then, 5–6 explants were incubated in a 5% CO2 atmosphere at 37 °C under slight agitation in 1 mL of the same medium. Free glycerol in the culture medium was determined after 1 h of incubation using a colorimetric assay (glycerol FS, DiaSys).

Series [4] relates to C57BL/6 wild type mice. Briefly: Oral glucose tolerance test (OGTT) in wild type mice. It is filed as in vivo. How it is done: as §2
A further series addresses T1, murine CB1R (Mus musculus, UniProt P47746).
T1 construct: host or cells: HEK293T/17
Nature of the series: GloSensor cAMP functional assay in CB1R-transfected HEK293T/17 cells. It is filed as cell-based. The protocol: GloSensor™ cAMP assay designed by Promega (Charbonnières-les-Bains, France) was used to monitor activation of CB1R. HEK293T/17 cells obtained from the American Type Cell Culture Collection (LGC Promochem, Molsheim, France) were seeded at 30,000 cells per well on poly-D-lysine coated 96-well plates (BD Biosciences, Le Pont de Claix, France). They were grown in Dulbecco’s Modified Eagle Medium (DMEM, Waltham, MA, USA) containing 2 mM glutamax and 10% fetal bovine serum. Twenty-four hours later, cells were transiently co-transfected with 50 ng per well of pcDNA3-mouse CB1R (plasmid #13391 supplied by Addgene, Cambridge, MA, USA) which was a gift from Mary E. Abood (California Pacific Medical Center Research Institute, San Francisco, California) and pGlo™-22F cAMP plasmid-luciferase (100 ng per well) allowing these cells to produce light proportionally to intracellular CB1R-dependent cAMP level. Transfection was performed using the Fugene®HD transfection reagent (Promega) for 24 h according to the manufacturer’s instructions. Mock transfections were performed with the empty vector pcDNA3. Twenty-four hours after transfection, cells were equilibrated for 2 h with a CO2-independent medium (Gibco®, Life Technologies, Courtaboeuf, France) supplemented with the GloSensor™ cAMP reagent before adding tested compounds. When a steady-state basal signal was obtained, cells were incubated for 10 min with 1 µM forskolin (Sigma) at room temperature to enhance the intracellular basal cAMP level. Then increasing concentrations of JM-00266 (0.1 µM to 1 mM) were added in the reaction medium in the presence or absence of anandamide (0.1 µM to 1 µM) and luminescence was measured for 20 min with a Victor 3V plate reader (Perkin Elmer, Courtaboeuf, France). […] When GloSensor™ cAMP assays were carried out in the presence of 0.1 µg·mL^−1 pertussis toxin (Sigma), this compound was added in the incubation medium 24 h before incubation with forskolin. All assays were performed in duplicate and each experiment was repeated three times. Results were expressed as the percentage of forskolin-stimulated luciferase activity. The EC50 values were generated using the Sigma Plot software.

A further series in a line: Brain/plasma ratio (B/P). The format is in vivo. Conditions: mice. The protocol: as §1
Brain/plasma ratios (B/P) were determined as previously described. […] Blood and brain were collected and directly extracted for further analysis by LC-MS/MS.

pEC50: −log10 of the molar value.

T1 sequence (P47746 whole entry): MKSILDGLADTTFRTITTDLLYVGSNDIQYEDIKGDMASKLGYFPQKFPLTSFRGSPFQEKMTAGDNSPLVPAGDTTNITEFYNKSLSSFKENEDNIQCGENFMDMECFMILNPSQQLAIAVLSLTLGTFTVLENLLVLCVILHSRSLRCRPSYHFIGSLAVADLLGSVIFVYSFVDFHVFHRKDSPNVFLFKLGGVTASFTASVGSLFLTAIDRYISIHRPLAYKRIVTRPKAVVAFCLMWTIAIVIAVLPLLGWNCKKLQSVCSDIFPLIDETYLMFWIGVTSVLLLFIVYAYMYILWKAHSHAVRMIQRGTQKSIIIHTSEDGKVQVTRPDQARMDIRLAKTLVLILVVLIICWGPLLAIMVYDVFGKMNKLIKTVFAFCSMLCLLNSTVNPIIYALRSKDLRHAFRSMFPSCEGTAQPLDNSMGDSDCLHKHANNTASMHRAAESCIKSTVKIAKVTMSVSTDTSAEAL

As a reminder, the pEC50 is the EC50 on a negative log10 scale, so that one unit is a factor of ten. By Kp is commonly meant tissue or fluid exposure divided by exposure in the circulation. Turning to `CSc1ccc(C2C(N3C(=O)c4ccccc4C3=O)C(=O)N2c2ccc(SC)cc2)cc1` (centres unmarked) [JM-00266, 1,4-di-(4-méthylthiophenyl)-3-phthaloylazetidin-2-one], in series [1], the “Concentrations in plasma and tissues compared with Rimonabant” value was “lower concentrations in plasma and tissues than Rimonabant”; the “Tissue distribution (plasma, brain, liver, visceral adipose tissue)” value is “preferentially accumulated in the liver and the adipose tissue whereas brain concentration remained very low”. In the series with C57BL/6 wild type mice [2], the “Glycemia during ITT (insulin sensitivity)” value is listed as “lower glycemia over time compared to vehicle treated mice”. The “Cumulative 3-h food intake, co-administration with ACEA” value with mice is “not observed”. The “Glycerol release by visceral adipose tissue explants vs control” value in series [3] is reported as “higher than in the control”. For the same compound, the “Plasma insulin levels during OGTT” value in the series with C57BL/6 wild type mice [4] (10 mg·kg−1 i.p.) was “lower than vehicle”. Further, the “Glucose tolerance (OGTT) vs vehicle” value with C57BL/6 wild type mice [4] (10 mg·kg−1 i.p. 10 min before glucose gavage 2 g·kg−1) is reported as “improved glucose tolerance”. Further, the “Effect on cAMP formation, compound alone” value at murine CB1R (HEK293T/17 cells transfected with murine CB1R, 0.1 µM to 1 mM) is recorded as “dose-dependent increase in cAMP formation”. In addition, the pEC50 at murine CB1R (HEK293T/17 cells transfected with murine CB1R, forskolin 1 µM, GloSensor luminescence, read-out: EC50, increase in cAMP formation (inverse agonism)) was 3.60. In addition, the “cAMP response with increasing concentrations of anandamide” value at murine CB1R (anandamide 0.1 µM to 1 µM) is “lost”. The “cAMP response in the presence of pertussis toxin” value on murine CB1R (pertussis toxin 0.1 µg·mL−1 added 24 h before) was “lost”. Also, the “Brain/plasma ratio (B/P)” value in “Brain/plasma ratio (B/P)” (10 mg·kg−1, i.p. or oral, DMSO/Tween 80 aqueous solution, at maximal absorption time point) is reported as “significantly lower”. In addition, the “Effect of the administration route on distribution in brain and plasma” value in “Brain/plasma ratio (B/P)” (10 mg·kg−1, i.p. vs oral) is recorded as “not modified”. Moreover, in the series “Brain/plasma ratio (B/P)” (mouse, brain, intraperitoneal, 10 mg·kg−1, i.p. or oral, DMSO/Tween 80 aqueous solution, at maximal absorption time point), the Kp was 0.3 to 0.5.
